The assay deals with MDA-MB-468 breast. Briefly: NCI tumour cell line growth inhibition, 48 h.

Where “and” joins values, the source holds several entries; their conditions need not be identical. Equal values may be shown once.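 Tested at 5 concentrations; 48 h exposure; 96-well plates; endpoints linearly interpolated, else capped at highest concentration. Abbreviation: GI50, concentration required for 50% inhibition of growth. TGI is the concentration that stops growth completely.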

Take `CCCN1CCN(c2ccc3nc(-c4ccc5nc(-c6cc(OC)ccc6OC)[nH]c5c4)[nH]c3c2)CC1`: the GI50 was 1.7 µM and the TGI worked out at 3.31 µM.

On to `O=CN1N=C(c2ccc(Cl)cc2)CC1c1cccc(Nc2ccnc3cc(Cl)ccc23)c1` (centres undefined), for which the GI50 is 0.284 µM and the TGI is 3.93 µM.

As for `COc1ccc(-c2nc3ncccn3c2/C=C/C(=O)c2cc(OC)c(OC)c(OC)c2)cc1`, the GI50 is 1.81 µM and the TGI was 3.65 µM.

Take `Cn1ccnc1C(=O)/C=C/c1ccc(CNC(=O)c2ccc(F)cc2)cc1`: the GI50 was 1.66 µM and the TGI came to 7.04 µM.

For the compound `O=S(=O)(c1ccc(N=C2NN=C(c3c[nH]c4ccccc34)CS2)cc1)N1CCOCC1`, the GI50 was 5.46 µM and the TGI was more than 100 µM.

For the compound `CC1(C)CC(n2cnc(-c3ccc(F)cc3)c2-c2ccnc(N)n2)CC(C)(C)N1`, the GI50 was 4.23 µM and the TGI was 24.2 µM.

For the compound `c1cc(OCCN2CCCCC2)ccc1CNc1ccc2nc(CCC3CCCCC3)[nH]c2c1`, the GI50 was 1.58 µM and the TGI is 3.84 µM.

In the case of `COc1ccc(CNc2c3ccccc3nc3ccc(OC)cc23)cc1`, the GI50 was 1.82 µM and the TGI is 4.31 µM.

Consider `Cc1cc(N2CCCC2)nc(NC2CCCC(Nc3ccnc4cc(Cl)ccc34)C2)n1` (centres undefined), for which the GI50 is 1.41 µM and the TGI stood at 3.14 µM.

Regarding `O=C([O][Hg][CH2]C1COCC([CH2][Hg][O]C(=O)c2ccccc2)O1)c1ccccc1` (centres undefined), the GI50 is 1.72 µM and the TGI amounted to 3.24 µM.

Regarding `Nc1cc(-c2cccc(OC(F)(F)F)c2)nc2ccc(N3CCCC3)cc12`, the GI50 was 0.0337 µM and 0.0304 µM and 0.0288 µM; the TGI is 0.237 µM and 0.115 µM and 0.136 µM.

In the case of `COc1c(Cl)c2c(c(OC)c1OC)-c1ccc(SC)c(=O)cc1[C@@H](NC(=O)OCC(F)(F)F)CC2`, the GI50 is less than 0.01 µM and the TGI was 17.3 µM.

`O=C(N/N=C/c1ccccc1Cl)c1ccccc1Nc1ccnc(C(F)(F)F)c1`: the GI50 was 2.25 µM and the TGI stood at 11.1 µM.

Consider `Cc1ccc(-c2nc(N)nc3c2nnn3Cc2cccc(CO[C@H]3CCOC3)n2)o1`, for which the GI50 is 44.4 µM and the TGI is more than 100 µM.

Turning to `Cc1cc(-c2nnc(N)nc2-c2ccc(F)cc2)cc(Cl)n1`, the GI50 is 20.6 µM and the TGI is more than 100 µM.

On to `COC(=O)c1c2c(c(C)[n+]([O-])c1C)C(=O)C=C(NCc1ccc(OC)cc1)C2=O`, for which the GI50 was 0.679 µM and the TGI is 2.01 µM.

Consider `C=C[C@H]1CCC/C=C/[C@@H]2C[C@H](O)C[C@H]2[C@H](O)/C=C/C(=O)O1`, for which the GI50 was less than 0.01 µM and the TGI is less than 0.0153 µM.

On to `COc1cc2c(Oc3ccc4[nH]c(C)cc4c3F)ccnc2cc1OCC1(N)CC1`, for which the GI50 was 0.312 µM and the TGI was 1.67 µM.

For `Cc1cc(N2CCN(c3ccnc4cc(Cl)ccc34)CC2)nc(NC2CCCCC2)n1`, the GI50 is 1.59 µM and the TGI came to 3.88 µM.

For `NC(=O)c1ccc2c(-c3ccnc(NCCCO)n3)c(-c3ccc(F)cc3)nn2c1`, the GI50 is more than 16.1 µM and the TGI was more than 25 µM.

With `O=c1[nH]ccc2nc(N3CCC(O)CC3)nc(Nc3cccc(C(F)(F)F)c3)c12`, the GI50 was 1.76 µM and the TGI was determined as 7.11 µM.

In the case of `C=CCN1C=CC(=O)[C@H](O[Si](C)(C)C(C)(C)C)[C@@H]1/C=C/c1ccccc1`, the GI50 is 8.27 µM and the TGI was found to be 22.2 µM.

With `C[C@@H]1N=C(c2ccc(Br)cc2)Nc2nc3ccccn3c2C1=O`, the GI50 is 1.98 µM and the TGI is 5.12 µM.

Take `O=C(Nc1ccc(F)cc1F)c1cc(Br)ccc1O`: the GI50 is 2.54 µM and the TGI stood at 6.91 µM.

As for `CCOc1ccc(Nc2nc(-c3ccc4c(c3)NC(=O)CO4)cs2)cc1`, the GI50 is 2.46 µM and the TGI stood at 8.04 µM.

Consider `CCN(CC)CCOc1ccc(C(=C(C)Cc2ccc(OC)cc2)c2ccc(OCCN(CC)CC)cc2)cc1`, for which the GI50 is 3.27 µM and the TGI worked out at 6.65 µM.

As for `Cc1ccc(NC2=C(Cl)C(=O)c3nc(C)ccc3C2=O)c(C)c1`, the GI50 was 1.61 µM and the TGI stood at 3.32 µM.
